Molecular target: HDM2 protein (Homo sapiens, UniProt Q00987)
Assay: fluorescence polarization screening assay (FP IC50)
Assay type: binding
Conditions: class symbols
Description: The compounds were evaluated to determine activity at the HDM2 protein by known methods such as the fluorescence polarization screening assay that measures the inhibitory concentration that achieves 50% of maximal activity (FP IC50) and the dissociation constant for inhibitor binding (FP Ki). [Zhang et al., J. Analytical Biochemistry 331: 138-146 (2004)].

Sequence of HDM2 protein (Q00987 whole entry): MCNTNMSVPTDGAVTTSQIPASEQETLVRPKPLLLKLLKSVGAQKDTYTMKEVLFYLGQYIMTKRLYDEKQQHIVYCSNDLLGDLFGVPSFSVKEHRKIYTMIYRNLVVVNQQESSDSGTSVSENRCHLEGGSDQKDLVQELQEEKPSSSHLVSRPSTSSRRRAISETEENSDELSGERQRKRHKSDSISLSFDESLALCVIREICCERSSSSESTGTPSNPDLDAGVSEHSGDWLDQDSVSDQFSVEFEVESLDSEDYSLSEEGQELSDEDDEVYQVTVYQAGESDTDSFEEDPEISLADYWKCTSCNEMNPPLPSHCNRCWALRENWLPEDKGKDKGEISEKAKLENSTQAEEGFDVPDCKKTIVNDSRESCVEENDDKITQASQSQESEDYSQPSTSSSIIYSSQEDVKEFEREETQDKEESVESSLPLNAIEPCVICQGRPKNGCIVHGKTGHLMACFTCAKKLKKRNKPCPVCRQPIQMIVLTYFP

Structure (SMILES) | IC50 [nM]
CCC[C@H]1N(C(=O)c2ncccc2C(F)(F)F)CCC[C@@]1(Oc1csc(C(F)(F)F)c1)C(=O)N1Cc2ccc(Cl)cc2C[C@H]1CCC(=O)O [Compound A143, 3-[(3R)-6-chloro-2-{[(2R,3S)-2-propyl-1-{[3-(trifluoromethyl)pyridin-2-yl]carbonyl}-3-{[5-(trifluoromethyl)thiophen-3-yl]oxy}piperidin-3-yl]carbonyl}-1,2,3,4-tetrahydroisoquinolin-3-yl]propanoic acid] | 1 to 100
CCC[C@H]1N(C(=O)c2ncccc2C(F)(F)F)CCC[C@@]1(Oc1csc(C(F)(F)F)c1)C(=O)N1Cc2ccc(F)cc2C[C@@H]1CC(=O)O [Compound A144, [(3R)-6-fluoro-2-{[(2R,3S)-2-propyl-1-{[3-(trifluoromethyl)pyridin-2-yl]carbonyl}-3-{[5-(trifluoromethyl)thiophen-3-yl]oxy}piperidin-3-yl]carbonyl}-1,2,3,4-tetrahydroisoquinolin-3-yl]acetic acid] | 1 to 100
CCC[C@H]1N(C(=O)c2ncccc2C(F)(F)F)CCC[C@@]1(Oc1csc(C(F)(F)F)c1)C(=O)N1Cc2ccc(Cl)cc2C[C@@H]1CCC(=O)NO [Compound A145, 3-[(3S)-6-chloro-2-{[(2R,3S)-2-propyl-1-{[3-(trifluoromethyl)pyridin-2-yl]carbonyl}-3-{[5-(trifluoromethyl)thiophen-3-yl]oxy}piperidin-3-yl]carbonyl}-1,2,3,4-tetrahydroisoquinolin-3-yl]-N-hydroxypropanamide] | 1 to 100
CCC[C@H]1N(C(=O)c2ncccc2C(F)(F)F)CCC[C@@]1(Oc1csc(C(F)(F)F)c1)C(=O)N1Cc2ccc(F)cc2C[C@@H]1CCCC(=O)O [Compound A146, 4-[(3S)-6-fluoro-2-{[(2R,3S)-2-propyl-1-{[3-(trifluoromethyl)pyridin-2-yl]carbonyl}-3-{[5-(trifluoromethyl)thiophen-3-yl]oxy}piperidin-3-yl]carbonyl}-1,2,3,4-tetrahydroisoquinolin-3-yl]butanoic acid] | 1 to 100
CCC[C@H]1N(C(=O)c2ncccc2C(F)(F)F)CCC[C@@]1(Oc1csc(C(F)(F)F)c1)C(=O)N1Cc2ccc(Cl)cc2C[C@@H]1CCC(=O)NS(C)(=O)=O [Compound A148, 3-[(3S)-6-chloro-2-{[(2R,3S)-2-propyl-1-{[3-(trifluoromethyl)pyridin-2-yl]carbonyl}-3-{[5-(trifluoromethyl)thiophen-3-yl]oxy}piperidin-3-yl]carbonyl}-1,2,3,4-tetrahydroisoquinolin-3-yl]-N-(methylsulfonyl) propanamide] | 1 to 100
CCC[C@H]1N(C(=O)c2ncccc2C(F)(F)F)CCC[C@@]1(Oc1csc(C(F)(F)F)c1)C(=O)N1Cc2cc(F)c(F)cc2C[C@H]1CCC(=O)O [Compound A157, 3-[(3R)-6,7-difluoro-2-{[(2R,3S)-2-propyl-1-{[3-(trifluoromethyl)pyridin-2-yl]carbonyl}-3-{[5-(trifluoromethyl)thiophen-3-yl]oxy}piperidin-3-yl]carbonyl}-1,2,3,4-tetrahydroisoquinolin-3-yl]propanoic acid] | 1 to 100
CCC[C@H]1N(C(=O)c2ncccc2C(F)(F)F)CCC[C@@]1(Oc1csc(C(F)(F)F)c1)C(=O)N1Cc2ccc(F)cc2C[C@H]1CN(C)C(=O)C(F)F [Compound A159, 2,2-difluoro-N-{[(3S)-6-fluoro-2-{[(2R,3S)-2-propyl-1-{[3-(trifluoromethyl)pyridin-2-yl]carbonyl}-3-{[5-(trifluoromethyl)thiophen-3-yl]oxy}piperidin-3-yl]carbonyl}-1,2,3,4-tetrahydroisoquinolin-3-yl]methyl}-N-methylacetamide] | 101 to 20000
CCC[C@H]1N(C(=O)c2ncccc2C(F)(F)F)CCC[C@@]1(Oc1csc(C(F)(F)F)c1)C(=O)N1Cc2ccc(Cl)cc2C[C@@H]1C[C@H](COC)C(=O)O [Compound A161, (2R)-3-[(3S)-6-chloro-2-{[(2R,3S)-2-propyl-1-{[3-(trifluoromethyl)pyridin-2-yl]carbonyl}-3-{[5-(trifluoromethyl)thiophen-3-yl]oxy}piperidin-3-yl]carbonyl}-1,2,3,4-tetrahydroisoquinolin-3-yl]-2-(methoxymethyl) propanoic acid] | 1 to 100

Continued, values first:

IC50 [nM] | Structure (SMILES)
1 to 100 | CCC[C@H]1N(C(=O)c2ncccc2C(F)(F)F)CCC[C@@]1(Oc1csc(C(F)(F)F)c1)C(=O)N1Cc2cc(F)ccc2C[C@H]1CCC(=O)O [Compound A147, 3-[(3R)-7-fluoro-2-{[(2R,3S)-2-propyl-1-{[3-(trifluoromethyl)pyridin-2-yl]carbonyl}-3-{[5-(trifluoromethyl)thiophen-3-yl]oxy}piperidin-3-yl]carbonyl}-1,2,3,4-tetrahydroisoquinolin-3-yl]propanoic acid]
1 to 100 | CCC[C@H]1N(C(=O)c2ncccc2C(F)(F)F)CCC[C@@]1(Oc1csc(C(F)(F)F)c1)C(=O)N1Cc2ccc(F)cc2C[C@@H]1C(=O)N1CCC(O)CC1 [Compound A149, 1-{[(3R)-6-fluoro-2-{[(2R,3S)-2-propyl-1-{[3-(trifluoromethyl)pyridin-2-yl]carbonyl}-3-{[5-(trifluoromethyl)thiophen-3-yl]oxy}piperidin-3-yl]carbonyl}-1,2,3,4-tetrahydroisoquinolin-3-yl]carbonyl}piperidin-4-ol]
1 to 100 | CCC[C@H]1N(C(=O)c2ncccc2C(F)(F)F)CCC[C@@]1(Oc1csc(C(F)(F)F)c1)C(=O)N1Cc2ccc(F)cc2C[C@@H]1C(=O)NCCO [Compound A150, (3R)-6-fluoro-N-(2-hydroxyethyl)-2-{[(2R,3S)-2-propyl-1-{[3-(trifluoromethyl)pyridin-2-yl]carbonyl}-3-{[5-(trifluoromethyl)thiophen-3-yl]oxy}piperidin-3-yl]carbonyl}-1,2,3,4-tetrahydroisoquinoline-3-carboxamide]
1 to 100 | CCC[C@H]1N(C(=O)c2ncccc2C(F)(F)F)CCC[C@@]1(Oc1csc(C(F)(F)F)c1)C(=O)N1Cc2ccc(Cl)cc2C[C@@H]1CN(C)C(=O)[C@@H](C)OC [Compound A151, (2R)-N-{[(3R)-6-chloro-2-{[(2R,3S)-2-propyl-1-{[3-(trifluoromethyl)pyridin-2-yl]carbonyl}-3-{[5-(trifluoromethyl)thiophen-3-yl]oxy}piperidin-3-yl]carbonyl}-1,2,3,4-tetrahydroisoquinolin-3-yl]methyl}-2-methoxy-N-methylpropanamide]
1 to 100 | CCC[C@H]1N(C(=O)c2ncccc2C(F)(F)F)CCC[C@@]1(Oc1csc(C(F)(F)F)c1)C(=O)N1Cc2ccc(Cl)cc2C[C@@H]1CN(C)C(=O)CC [Compound A152, N-{[(3R)-6-chloro-2-{[(2R,3S)-2-propyl-1-{[3-(trifluoromethyl)pyridin-2-yl]carbonyl}-3-{[5-(trifluoromethyl)thiophen-3-yl]oxy}piperidin-3-yl]carbonyl}-1,2,3,4-tetrahydroisoquinolin-3-yl]methyl}-N-methylpropanamide]
1 to 100 | CCC[C@H]1N(C(=O)c2ncccc2C(F)(F)F)CCC[C@@]1(Oc1csc(C(F)(F)F)c1)C(=O)N1Cc2ccc(F)cc2C[C@H]1C[C@H](C(=O)O)C(C)C [Compound A153, (2S)-2-{[(3R)-6-fluoro-2-{[(2R,3S)-2-propyl-1-{[3-(trifluoromethyl)pyridin-2-yl]carbonyl}-3-{[5-(trifluoromethyl)thiophen-3-yl]oxy}piperidin-3-yl]carbonyl}-1,2,3,4-tetrahydroisoquinolin-3-yl]methyl}-3-methylbutanoic acid]
101 to 20000 | CCC[C@H]1N(C(=O)c2ncccc2C(F)(F)F)CCC[C@@]1(Oc1csc(C(F)(F)F)c1)C(=O)N1Cc2ccccc2C(C(=O)O)C1 (stereo partly drawn) [Compound A154, 2-{[(2R,3S)-2-propyl-1-{[3-(trifluoromethyl)pyridin-2-yl]carbonyl}-3-{[5-(trifluoromethyl)thiophen-3-yl]oxy}piperidin-3-yl]carbonyl}-1,2,3,4-tetrahydroisoquinoline-4-carboxylic acid]
1 to 100 | CCC[C@H]1N(C(=O)c2ncccc2C(F)(F)F)CCC[C@@]1(Oc1csc(C(F)(F)F)c1)C(=O)N1Cc2ccc(Cl)cc2C[C@@H]1CCCN1CCOCC1 [Compound A155, (3S)-6-chloro-3-(3-morpholin-4-ylpropyl)-2-{[(2R,3S)-2-propyl-1-{[3-(trifluoromethyl)pyridin-2-yl]carbonyl}-3-{[5-(trifluoromethyl)thiophen-3-yl]oxy}piperidin-3-yl]carbonyl}-1,2,3,4-tetrahydroisoquinoline]
1 to 100 | CCC[C@H]1N(C(=O)c2ncccc2C(F)(F)F)CCC[C@@]1(Oc1csc(C(F)(F)F)c1)C(=O)N1Cc2ccc(Cl)cc2C[C@@H]1CCCN1CCC[C@H]1COC [Compound A156, (3S)-6-chloro-3-{3-[(2S)-2-(methoxymethyl)pyrrolidin-1-yl]propyl}-2-{[(2R,3S)-2-propyl-1-{[3-(trifluoromethyl)pyridin-2-yl]carbonyl}-3-{[5-(trifluoromethyl)thiophen-3-yl]oxy}piperidin-3-yl]carbonyl}-1,2,3,4-tetrahydroisoquinoline]
101 to 20000 | CCC[C@H]1N(C(=O)c2ncccc2C(F)(F)F)CCC[C@@]1(Oc1csc(C(F)(F)F)c1)C(=O)N1Cc2ccc(F)cc2C[C@H]1CN(C)C(=O)[C@@H](C)O [Compound A158, (2R)-N-{[(3S)-6-fluoro-2-{[(2R,3S)-2-propyl-1-{[3-(trifluoromethyl)pyridin-2-yl]carbonyl}-3-{[5-(trifluoromethyl)thiophen-3-yl]oxy}piperidin-3-yl]carbonyl}-1,2,3,4-tetrahydroisoquinolin-3-yl]methyl}-2-hydroxy-N-methylpropanamide]
101 to 20000 | CCC[C@H]1N(C(=O)c2ncccc2C(F)(F)F)CCC[C@@]1(Oc1csc(C(F)(F)F)c1)C(=O)N1Cc2ccc(F)cc2C[C@H]1C(=O)N1CCN(C)CC1 [Compound A160, (3S)-6-fluoro-3-[(4-methylpiperazin-1-yl)carbonyl]-2-{[(2R,3S)-2-propyl-1-{[3-(trifluoromethyl)pyridin-2-yl]carbonyl}-3-{[5-(trifluoromethyl)thiophen-3-yl]oxy}piperidin-3-yl]carbonyl}-1,2,3,4-tetrahydroisoquinoline]

From patent publication US9062071B2, “Substituted piperidines as HDM2 inhibitors” (Merck Sharp & Dohme Corp, priority 2011, dated 2015)
